The subject of assay [1] is PBMCs. Put plainly: PBMC assay, IL-6 release (HTRF). The note with it: PBMCs from healthy donors, overnight, IL-6 induction by HTRF, average of quadruplicate. Type of assay: cell-based. How it is done:
Whole peripheral blood was obtained from healthy donors. PBMCs were isolated from peripheral blood by density gradient centrifugation. […] The plasma layer containing PBMCs was poured into a new tube and washed twice. Isolated PBMCs were either used fresh or thawed from previously frozen. 1×10^5 PBMCs were cultured with titrating concentrations of compounds of Formula I overnight followed by assaying for cytokines by homogeneous time resolved fluorescence (HTRF).

Assay [2] has as its target T1, TLR7 (Homo sapiens, UniProt Q9NYK1).
T1 sequence (Q9NYK1 27-1049): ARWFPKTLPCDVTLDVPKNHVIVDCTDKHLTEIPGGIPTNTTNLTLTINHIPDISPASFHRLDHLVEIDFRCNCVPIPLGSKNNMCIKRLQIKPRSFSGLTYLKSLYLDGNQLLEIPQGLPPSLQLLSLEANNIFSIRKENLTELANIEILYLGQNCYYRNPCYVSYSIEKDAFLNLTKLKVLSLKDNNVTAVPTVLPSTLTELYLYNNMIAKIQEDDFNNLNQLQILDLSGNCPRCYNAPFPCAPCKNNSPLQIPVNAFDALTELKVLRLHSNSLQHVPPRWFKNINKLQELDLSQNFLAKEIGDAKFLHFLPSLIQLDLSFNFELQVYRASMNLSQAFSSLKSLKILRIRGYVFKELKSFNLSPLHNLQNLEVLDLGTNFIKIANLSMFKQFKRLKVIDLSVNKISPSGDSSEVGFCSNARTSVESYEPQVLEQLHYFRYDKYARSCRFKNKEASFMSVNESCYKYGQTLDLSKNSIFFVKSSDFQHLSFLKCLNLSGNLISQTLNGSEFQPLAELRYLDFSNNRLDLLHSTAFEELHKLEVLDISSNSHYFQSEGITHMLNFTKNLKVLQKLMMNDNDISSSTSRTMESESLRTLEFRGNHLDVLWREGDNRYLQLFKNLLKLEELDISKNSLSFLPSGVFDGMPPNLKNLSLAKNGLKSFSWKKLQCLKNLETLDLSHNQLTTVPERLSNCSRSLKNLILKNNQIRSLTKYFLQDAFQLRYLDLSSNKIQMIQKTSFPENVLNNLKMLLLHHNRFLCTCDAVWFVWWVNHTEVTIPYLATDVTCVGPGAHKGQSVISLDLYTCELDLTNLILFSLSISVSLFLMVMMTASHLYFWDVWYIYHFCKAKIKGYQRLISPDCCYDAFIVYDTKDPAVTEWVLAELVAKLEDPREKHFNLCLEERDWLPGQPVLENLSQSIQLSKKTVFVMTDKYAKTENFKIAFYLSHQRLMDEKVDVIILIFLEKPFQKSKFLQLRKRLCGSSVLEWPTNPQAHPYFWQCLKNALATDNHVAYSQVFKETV
Description: Reporter gene assay, HEK-Blue TLR7 reporter cells (SEAP). In general terms: Reporter assays use an easily measured gene product as a stand-in for the process of interest.
Description: (§1) 3×10^4 HEK-Blue™ TLR7 or 3×10^4 TLR8 reporter cells (InvivoGen, San Diego, CA) were treated with titrated (4-fold) amounts of test compound. […] Cells were incubated overnight at 37° C. and 5% CO2, then absorbance (620 and 655 nm) was read on a Synergy™ H1 microplate reader.

Assay [3] deals with T2, TLR8 (Homo sapiens, UniProt Q9NR97).
T2 sequence (Q9NR97 27-1041): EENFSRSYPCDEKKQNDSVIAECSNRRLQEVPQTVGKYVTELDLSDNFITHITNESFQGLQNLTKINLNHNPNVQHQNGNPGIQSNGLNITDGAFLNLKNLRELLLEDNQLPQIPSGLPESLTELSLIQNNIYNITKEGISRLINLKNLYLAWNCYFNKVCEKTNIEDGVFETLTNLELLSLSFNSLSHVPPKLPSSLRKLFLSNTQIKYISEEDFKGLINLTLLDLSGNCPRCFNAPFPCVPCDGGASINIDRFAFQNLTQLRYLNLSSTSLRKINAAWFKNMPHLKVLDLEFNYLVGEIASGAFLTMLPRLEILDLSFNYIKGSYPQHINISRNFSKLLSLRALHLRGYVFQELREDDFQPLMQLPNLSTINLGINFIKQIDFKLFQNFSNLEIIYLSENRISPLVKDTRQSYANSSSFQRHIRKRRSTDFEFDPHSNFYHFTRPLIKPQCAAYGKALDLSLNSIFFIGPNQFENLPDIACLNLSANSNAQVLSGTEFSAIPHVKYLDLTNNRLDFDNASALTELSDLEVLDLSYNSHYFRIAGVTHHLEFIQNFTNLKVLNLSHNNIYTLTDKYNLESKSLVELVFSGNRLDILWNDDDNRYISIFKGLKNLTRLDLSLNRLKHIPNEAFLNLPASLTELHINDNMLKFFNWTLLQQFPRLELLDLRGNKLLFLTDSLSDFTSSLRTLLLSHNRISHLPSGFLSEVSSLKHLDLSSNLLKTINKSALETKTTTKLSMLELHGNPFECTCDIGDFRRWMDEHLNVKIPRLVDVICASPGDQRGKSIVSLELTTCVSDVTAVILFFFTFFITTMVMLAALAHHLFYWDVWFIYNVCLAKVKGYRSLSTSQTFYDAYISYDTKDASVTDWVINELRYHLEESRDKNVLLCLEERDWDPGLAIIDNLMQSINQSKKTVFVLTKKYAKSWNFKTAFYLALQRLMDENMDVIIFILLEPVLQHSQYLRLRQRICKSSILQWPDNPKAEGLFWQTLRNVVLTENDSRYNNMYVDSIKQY
Description: Reporter gene assay, HEK-Blue TLR8 reporter cells (SEAP).
Description: as §1

The structures appear in SMILES notation.

One may read the EC50 as the concentration that produces a half-maximal response. The low end stands for greater potency, the high end for weaker potency. Regarding `CCCCc1nc2c(N)nc3ccsc3c2n1Cc1ccc(CN2CCCCC2)cc1` [Compound 151, 2-butyl-1-(4-(piperidin-1-ylmethyl)benzyl)-1H-imidazo[4,5-d]thieno[3,2-b]pyridin-4-amine], the values for the EC50 in assay [1], in assay [2] and in assay [3] were 20 nM, 3.8 nM and > 1000 nM, respectively.

`CCCCc1nc2c(N)nc3ccsc3c2n1Cc1ccc(CN(CCN(CCCC)CCCC)CCN(CCCC)CCCC)cc1` [Compound 152, N^1-(4-((4-amino-2-butyl-1H-imidazo[4,5-d]thieno[3,2-b]pyridin-1-yl)methyl)benzyl)-N^2,N^2-dibutyl-N^1-(2-(dibutylamino)ethyl)ethane-1,2-diamine]: the EC50 was 59 nM in assay [1], 67 nM in assay [2] and > 1000 nM in assay [3].

For the compound `CCCCc1nc2c(N)nc3ccsc3c2n1Cc1ccc(CN2CCN(C(=O)OC(C)(C)C)CC2)cc1` [Compound 153, tert-butyl 4-(4-((4-amino-2-butyl-1H-imidazo[4,5-d]thieno[3,2-b]pyridin-1-yl)methyl)benzyl)piperazine-1-carboxylate], the EC50 in assay [1] was 420 nM; in assay [2], 85 nM; in assay [3], > 1000 nM.

Consider `CCCCc1nc2c(N)nc3ccsc3c2n1Cc1ccc(CNCc2ccc(CNC(=O)OC(C)(C)C)cc2)cc1` [Compound 155, tert-butyl (4-(((4-((4-amino-2-butyl-1H-imidazo[4,5-d]thieno[3,2-b]pyridin-1-yl)methyl)benzyl)amino)methyl)benzyl)carbamate], for which the 50% effective concentration (EC50) is 110 nM in assay [1], 444 nM in assay [2] and > 1000 nM in assay [3].

On to `CCCCc1nc2c(N)nc3ccsc3c2n1Cc1ccc(CNCCNC(=O)OC(C)(C)C)cc1` [Compound 160, tert-butyl (2-((4-((4-amino-2-butyl-1H-imidazo[4,5-d]thieno[3,2-b]pyridin-1-yl)methyl)benzyl)amino)ethyl)carbamate], for which the EC50 is 32 nM in assay [1], 8.7 nM in assay [2] and > 1000 nM in assay [3].

Consider `CCCCc1nc2c(N)nc3ccsc3c2n1Cc1ccc(C=O)cc1` [Compound 164, 4-((4-amino-2-butyl-1H-imidazo[4,5-d]thieno[3,2-b]pyridin-1-yl)methyl)benzaldehyde], for which the EC50 in assay [1], in assay [2] and in assay [3] was > 1000 nM each time.

For the compound `CCCCc1nc2c(N)nc3ccsc3c2n1Cc1ccc(CN[C@H](C(=O)O)[C@@H](C)O)cc1` [Compound 298, (4-((4-amino-2-butyl-1H-imidazo[4,5-d]thieno[3,2-b]pyridin-1-yl)methyl)benzyl)-L-threonine], the EC50 in assay [2] was 159 nM; in assay [3], > 1000 nM.

In the case of `CCCCc1nc2c(N)nc3ccsc3c2n1Cc1ccc(CN(CC(=O)O)CC(=O)O)cc1` [Compound 299, 2,2′-((4-((4-amino-2-butyl-1H-imidazo[4,5-d]thieno[3,2-b]pyridin-1-yl)methyl)benzyl)azanediyl)diacetic acid], the EC50 in assay [2] is 446 nM; in assay [3], > 1000 nM.

`CCCCc1nc2c(N)nc3ccsc3c2n1Cc1ccc(CN2CCC[C@H]2C(=O)O)cc1` [Compound 300, (4-((4-amino-2-butyl-1H-imidazo[4,5-d]thieno[3,2-b]pyridin-1-yl)methyl)benzyl)-L-proline]: the EC50 in assay [2] and in assay [3] was > 1000 nM each time.

For the compound `CCCCc1nc2c(N)nc3ccsc3c2n1Cc1ccc(CNCCC(=O)N[C@@H](Cc2cnc[nH]2)C(=O)O)cc1` [Compound 301, (3-((4-((4-amino-2-butyl-1H-imidazo[4,5-d]thieno[3,2-b]pyridin-1-yl)methyl)benzyl)amino)propanoyl)-L-histidine], the EC50 was 348 nM in assay [2] and > 1000 nM in assay [3].

As to `CCCCc1nc2c(N)nc3ccsc3c2n1Cc1ccc(CNCCCC[C@H](N)C(=O)O)cc1` [Compound 305, N^6-(4-((4-amino-2-butyl-1H-imidazo[4,5-d]thieno[3,2-b]pyridin-1-yl)methyl)benzyl)-L-lysine], the EC50 in assay [2] was 108 nM; in assay [3], > 1000 nM.

For the origin of these results see patent US20250179088A9 (ZYMEWORKS BC INC., priority 2020, published 2025).
